Data on 30 molecules can be found in patent US20230293519A1, “INTEGRIN INHIBITORS AND USES THEREOF IN COMBINATION WITH OTHER AGENTS” (Pliant Therapeutics, Inc., priority 2021, published 2023).

Assay [1] deals with Type I Collagen gene Col1a1 expression. Nature of the assay: Precision cut lung slices of mice under acute bleomycin exposure. Type of assay: cell-based, mouse. Conditions: slices cultured 3 days; integrin inhibitors at IC50, pan-αv and ALK5 inhibitors at 10x IC50. The protocol:
Mice (C57BL/6) were administered 3 U/kg of bleomycin (Teva Pharmaceuticals; North Wales, PA) on day 0 via oropharyngeal aspiration while under anesthesia. On day 14, precision cut lung slices were obtained. Following euthanization, 2% low gelling temp agarose was injected into the mouse lungs via the trachea. […] The lobes were then subjected to precision slicing to obtain samples for culture using a microtome (Compresstome VF-300-0Z, Precisionary; Greenville, NC). Individual slices were distributed in a multiwell culture plate and cultured for 3 days under control (DMSO) and test compound conditions.

Assay [2] deals with recombinant human integrin αvβ6 (Homo sapiens (Human), UniProt P06756+P18564). Nature of the assay: Solid phase integrin αvβ6 binding assay. The conditions noted are these: IC50 presented in four ranges; read-out: αvβ6 Inhibition IC50 (nM) - range. The procedure: (§1) Microplates were coated with recombinant human integrin αvβ6 (2 µg/mL) in PBS (100 µL/well 25° C., overnight). The coating solution was removed, washed with wash buffer (0.05% Tween 20; 0.5 mM MnCl2; in 1x TBS). The plate was blocked with 200 µL/well of Block Buffer (1% BSA; 5% sucrose; 0.5 mM MnCl2; in 1x TBS) at 37° C. for 2 h. Dilutions of testing compounds and recombinant TGFβ1 LAP (0.67 µg/mL) in binding buffer (0.05% BSA; 2.5% sucrose; 0.5 mM MnCl2; in 1x TBS) were added. The plate was incubated for 2 hours at 25° C., washed, and incubated for 1 hour with Biotin-Anti-hLAP. Bound antibody was detected by peroxidase-conjugated streptavidin. The IC50 values for testing compounds were calculated by a four-parameter logistic regression.
recombinant human integrin αvβ6, sequence (P06756 31-889): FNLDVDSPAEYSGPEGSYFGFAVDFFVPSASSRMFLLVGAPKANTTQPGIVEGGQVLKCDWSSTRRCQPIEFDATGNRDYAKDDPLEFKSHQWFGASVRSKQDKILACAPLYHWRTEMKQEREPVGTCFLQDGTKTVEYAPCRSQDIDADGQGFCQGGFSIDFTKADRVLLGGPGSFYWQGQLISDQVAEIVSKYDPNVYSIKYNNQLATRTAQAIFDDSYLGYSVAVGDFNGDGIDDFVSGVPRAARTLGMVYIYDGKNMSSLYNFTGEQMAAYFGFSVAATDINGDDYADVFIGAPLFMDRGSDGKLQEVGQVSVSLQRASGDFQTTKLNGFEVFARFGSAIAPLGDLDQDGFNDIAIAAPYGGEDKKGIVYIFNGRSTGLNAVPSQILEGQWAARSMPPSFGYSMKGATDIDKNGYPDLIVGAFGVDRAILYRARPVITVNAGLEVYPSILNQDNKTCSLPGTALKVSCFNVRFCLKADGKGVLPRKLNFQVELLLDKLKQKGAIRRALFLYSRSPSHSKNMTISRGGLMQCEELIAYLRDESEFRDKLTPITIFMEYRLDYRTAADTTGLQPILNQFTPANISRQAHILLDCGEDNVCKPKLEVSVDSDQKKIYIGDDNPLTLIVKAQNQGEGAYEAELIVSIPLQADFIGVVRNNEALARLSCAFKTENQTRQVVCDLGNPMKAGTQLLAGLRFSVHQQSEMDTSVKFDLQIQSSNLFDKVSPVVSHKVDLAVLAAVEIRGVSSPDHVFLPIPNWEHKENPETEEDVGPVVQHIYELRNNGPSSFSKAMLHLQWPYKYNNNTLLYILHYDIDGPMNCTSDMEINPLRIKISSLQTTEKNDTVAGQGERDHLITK
recombinant human integrin αvβ6, sequence (P06756 890-992 partner): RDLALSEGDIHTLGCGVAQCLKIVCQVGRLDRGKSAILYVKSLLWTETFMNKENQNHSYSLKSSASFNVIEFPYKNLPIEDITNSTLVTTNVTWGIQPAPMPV
recombinant human integrin αvβ6, sequence (P18564 22-707): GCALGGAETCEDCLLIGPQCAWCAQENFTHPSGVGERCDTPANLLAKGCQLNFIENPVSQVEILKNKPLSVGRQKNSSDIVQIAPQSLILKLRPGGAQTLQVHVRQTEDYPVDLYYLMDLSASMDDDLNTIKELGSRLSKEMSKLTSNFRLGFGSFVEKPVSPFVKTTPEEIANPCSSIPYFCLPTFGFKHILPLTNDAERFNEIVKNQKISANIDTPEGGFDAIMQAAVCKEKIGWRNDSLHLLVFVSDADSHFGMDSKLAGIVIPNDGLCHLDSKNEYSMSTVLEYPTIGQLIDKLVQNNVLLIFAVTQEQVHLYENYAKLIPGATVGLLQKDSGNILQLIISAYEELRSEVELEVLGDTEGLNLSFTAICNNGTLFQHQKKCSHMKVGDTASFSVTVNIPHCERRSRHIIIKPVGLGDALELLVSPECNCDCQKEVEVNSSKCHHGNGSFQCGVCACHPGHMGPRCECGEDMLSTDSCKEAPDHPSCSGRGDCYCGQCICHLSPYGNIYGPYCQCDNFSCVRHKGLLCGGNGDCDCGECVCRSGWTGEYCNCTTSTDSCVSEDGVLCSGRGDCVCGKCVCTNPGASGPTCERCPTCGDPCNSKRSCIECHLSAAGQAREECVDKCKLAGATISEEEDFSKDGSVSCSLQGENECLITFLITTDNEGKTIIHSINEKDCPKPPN
The compounds tested were compound samples prepared according to procedures described in the Synthetic Examples section, with the stereochemical purity as indicated in the Examples.
as §1, with “A third series of exemplary compounds was selected for testing in the solid phase integrin αvβ6 binding assay. The compounds tested were compound samples prepared according to procedures described in the Synthetic Examples section, with the stereochemical purity as indicated in the Examples. As in Example B1, microplates” for “Microplates”

Turning to `CC(C)(C)c1cc(Br)cc(C(CC(=O)O)NC(=O)CNC(=O)c2cc(O)cc(NC3=NCC(O)CN3)c2)c1` [second pan-αv small molecule inhibitor, (3S)-N-[3-hydroxy-5-[(1,4,5,6-tetrahydro-5-hydroxy-2-pyrimidinyl)amino]benzoyl]glycyl-3-[3-bromo-5-(1,1-dimethylethyl)phenyl]-(3-alanine], in assay [1], the “Type I Collagen gene Col1a1 expression vs DMSO control” value is on record as “reduced”. By IC50 is commonly meant the concentration that inhibits the measured activity by half. With `COC[C@@H](F)CN(CCCCc1ccc2c(n1)NCCC2)CC[C@H](Nc1nc(-c2cccnc2)nc2ccccc12)C(=O)O` [compound 109], in assay [2], the 50% inhibitory concentration (IC50) is below 50 nM.

For `O=C(O)[C@H](CCN(CCO)CCCCc1ccc2c(n1)NCCC2)Nc1ncnc2ccccc12` [compound 75], in assay [2], the 50% inhibitory concentration (IC50) was below 50 nM. Regarding `CO[C@H](C)CN(CCCCc1ccc2c(n1)NCCC2)CC[C@H](Nc1nccnc1C#N)C(=O)O` [compound 76], in assay [2], the half-inhibitory concentration (IC50) was below 50 nM.

With `COc1ccc2c(N[C@@H](CCN(CCCF)CCCCc3ccc4c(n3)NCCC4)C(=O)O)ncnc2c1` [compound 41], the IC50 in assay [2] is below 50 nM.

Consider `CS(=O)(=O)CCN(CCCCc1ccc2c(n1)NCCC2)CC[C@H](Nc1ncc(C(F)(F)F)cn1)C(=O)O` [compound 102], for which the concentration for half-maximal inhibition (IC50) in assay [2] was above 1000 nM.

`CO[C@H](C)CN(CCCCc1ccc2c(n1)NCCC2)CC[C@H](Nc1ncnc2[nH]ncc12)C(=O)O` [compound 71]: the IC50 in assay [2] was below 50 nM.

Consider `O=C(O)[C@H](CCN(CCCCc1ccc2c(n1)NCCC2)CCOc1ccc(F)cc1)Nc1ncc(Br)cn1` [compound 144], for which, in assay [2], the half-inhibitory concentration (IC50) fell in the range of 50 to 250 nM. On to `CN(C)C(=O)CN(CCCCc1ccc2c(n1)NCCC2)CC[C@H](Nc1ncc(C(F)(F)F)cn1)C(=O)O` [compound 141], for which the IC50 in assay [2] was 50 to 250 nM.

`O=C(O)[C@H](CCN(CCCCc1ccc2c(n1)NCCC2)C1CC1)Nc1ncnc2ccccc12` [compound 6]: the half-maximal inhibitory concentration (IC50) in assay [2] was 50 to 250 nM.

With `O=C(O)[C@H](CCN(CCCCc1ccc2c(n1)NCCC2)CC(F)F)Nc1ncc(F)cn1` [compound 121], in assay [2], the half-maximal inhibitory concentration (IC50) was above 1000 nM.

Take `O=C(O)[C@H](CCN(CCCCc1ccc2c(n1)NCCC2)CCC(F)F)Nc1ccnc(C(F)(F)F)n1` [compound 134]: the IC50 in assay [2] lay within 50 to 250 nM. On the same count and under the same terms, the figure for `O=C(O)[C@H](CCN(CCCCc1ccc2c(n1)NCCC2)C1CC1)Nc1ccnc(C(F)(F)F)n1` [compound 115] is 50 to 250 nM; for `CO[C@H](C)CN(CCCCc1ccc2c(n1)NCCC2)CC[C@H](Nc1ncc(Br)cn1)C(=O)O` [compound 86] it is 50 to 250 nM; for `CO[C@H](C)CN(CCCCc1ccc2c(n1)NCCC2)CCC(Nc1ncnc2ccccc12)C(=O)O` (stereo partly drawn) [compound 62] it is below 50 nM. For the molecule `CS(=O)(=O)CCN(CCCCc1ccc2c(n1)NCCC2)CC[C@H](Nc1ccnc(C(F)(F)F)n1)C(=O)O` [compound 104], the IC50 in assay [2] is above 1000 nM. Still for that read-out and setting: the figure for `O=C(O)[C@H](CCN(CCCCc1ccc2c(n1)NCCC2)CCOc1ccccn1)Nc1ncnc2ccccc12` [compound 49] is below 50 nM. For the molecule `COCCN(CCCCc1ccc2c(n1)NCCC2)CCC(Nc1ncnc2ncccc12)C(=O)O` (stereo not drawn) [compound 11], the IC50 in assay [2] is below 50 nM. Still for that read-out and setting: the figure for `O=C(O)[C@H](CCN(CCCCc1ccc2c(n1)NCCC2)CCOc1ccccc1)Nc1cc(-n2cccn2)ncn1` [compound 91] is below 50 nM.

`O=C(O)[C@H](CCN(CCCCc1ccc2c(n1)NCCC2)CCOC(F)F)Nc1ncnc2ccccc12` [compound 35]: the IC50 in assay [2] was below 50 nM. On the same count and under the same terms, the figure for `O=C(O)[C@H](CCN(CCCCc1ccc2c(n1)NCCC2)CCOc1ccccc1)Nc1ncc(C(F)(F)F)cn1` [compound 89] is below 50 nM; for `Cc1ccc(OCCN(CCCCc2ccc3c(n2)NCCC3)CC[C@H](Nc2ncnc3cccnc23)C(=O)O)cn1` [compound 57] it is below 50 nM; for `CC(=O)NCCN(CCCCc1ccc2c(n1)NCCC2)CC[C@H](Nc1ncnc2ccccc12)C(=O)O` [compound 63] it is below 50 nM. As to `COCCN(CCCCc1ccc2c(n1)NCCC2)CC[C@H](Nc1ncnc2cc(Cl)ccc12)C(=O)O` [compound 37], the IC50 in assay [2] was 50 to 250 nM. `O=C(O)[C@H](CCN(CCCCc1ccc2c(n1)NCCC2)CCOc1cc(F)cc(F)c1)Nc1ncnc2ccccc12` [compound 47]: the 50% inhibitory concentration (IC50) in assay [2] was below 50 nM.

On to `COCCN(CCCCc1ccc2c(n1)NCCC2)CC[C@H](Nc1ccnc2ccccc12)C(=O)O` [compound 36], for which the IC50 in assay [2] was above 1000 nM. On the same count and under the same terms, the figure for `CO[C@H](C)CN(CCCCc1ccc2c(n1)NCCC2)CC[C@H](Nc1nc(-c2cccnc2)nc2ccccc12)C(=O)O` [compound 100] is below 50 nM; for `CO[C@H](C)CN(CCCCc1ccc2c(n1)NCCC2)CC[C@H](Nc1ccncn1)C(=O)O` [compound 127] it is 250 to 1000 nM; for `O=C(O)[C@H](CCN(CCCCc1ccc2c(n1)NCCC2)CCOCC(F)(F)F)Nc1ncnc2ccccc12` [compound 39] it is below 50 nM. Still for that read-out and setting: the figure for `CO[C@H](C)CN(CCCCc1ccc2c(n1)NCCC2)CC[C@H](Nc1cc(-c2ccccc2)ncn1)C(=O)O` [compound 128] is above 1000 nM.
